Structures can show the parent of a compound that is named as a salt. Bounds are passed on as bounds.

The test system of assay [1] is human monocyte stimulated cytokine production (TNF-α). Kind of assay: Monocyte assay (LPS-stimulated TNF-α production). Format: cell-based. To be noted: for IC50: 24 h, 200 ng/mL LPS, TNF-α by ELISA; for inhibition at 0.3 µM: read-out: inhibition at 300 nM in the monocyte assay. The procedure, abridged:
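Human CD14+ monocytes were purified from blood and plated at 1×10^6 cells/mL in RPMI 1640 with 10% FBS. Compound was added 30 min before stimulation with 200 ng/mL LPS (0.1% DMSO final), followed by 24 hrs at 37 C. Supernatant TNF-α was measured by ELISA, and viability by trypan blue exclusion.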

The target in assay [2] is T1, Recombinant human IKKβ (residues 1-737) (Homo sapiens, UniProt O14920).
T1 construct: Recombinant human IKKβ (residues 1-737); GST (C); made in house
T1 sequence (O14920 1-737): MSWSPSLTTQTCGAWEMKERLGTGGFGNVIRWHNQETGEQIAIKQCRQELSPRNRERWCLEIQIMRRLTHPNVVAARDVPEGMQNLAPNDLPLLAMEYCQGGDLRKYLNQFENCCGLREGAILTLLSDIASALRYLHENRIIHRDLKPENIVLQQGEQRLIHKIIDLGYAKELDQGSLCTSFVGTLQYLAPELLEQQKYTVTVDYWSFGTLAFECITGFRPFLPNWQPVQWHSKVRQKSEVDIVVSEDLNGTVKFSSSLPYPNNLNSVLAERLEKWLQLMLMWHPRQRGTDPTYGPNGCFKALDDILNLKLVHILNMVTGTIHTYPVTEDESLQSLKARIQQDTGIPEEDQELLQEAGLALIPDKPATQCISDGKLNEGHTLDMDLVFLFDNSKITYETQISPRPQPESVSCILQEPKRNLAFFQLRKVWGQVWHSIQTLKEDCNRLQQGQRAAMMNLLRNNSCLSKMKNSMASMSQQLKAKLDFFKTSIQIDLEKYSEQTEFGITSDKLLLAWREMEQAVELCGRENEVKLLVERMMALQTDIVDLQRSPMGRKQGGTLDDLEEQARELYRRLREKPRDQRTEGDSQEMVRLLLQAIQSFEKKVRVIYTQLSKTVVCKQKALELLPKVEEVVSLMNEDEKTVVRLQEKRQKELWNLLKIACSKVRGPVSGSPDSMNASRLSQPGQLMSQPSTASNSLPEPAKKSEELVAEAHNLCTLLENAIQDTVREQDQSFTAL
Kind of assay: IKK2 assay (TR-FRET). Format: biochemical. To be noted: ATP 1 μM final, read-out: pIC50 against IKK2 (converted). In short, it runs like this:
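Baculovirus-expressed C-terminal GST-tagged IKKβ (0.5-5 nM final) in HEPES pH 7.4, MgCl2, CHAPS, DTT, BSA with 1.7% DMSO; 25 nM GST-IB substrate and 1 μM ATP, 15 min at room temperature. EDTA stop; phospho-Ser32/36 detected by Eu-antibody/APC-anti-GST TR-FRET, 665/620 nm ratio.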
A general note: Time-resolved FRET reads energy transfer from a long-lived donor to a nearby acceptor.

Regarding `CCS(=O)(=O)N1CCC(c2c[nH]c3c(C(N)=O)cc(-c4csc(CN(C)CCC#N)c4)cc23)CC1` [Example 43, 5-(5-{[(2-cyanoethyl)(methyl)amino]methyl}-3-thienyl)-3-[1-(ethylsulfonyl)-4-piperidinyl]-1H-indole-7-carboxamide trifluoroacetate], the figures for the IC50 in assay [1] and in assay [2] were ≤ 1.5 µM and ≤ 10 µM, respectively.
In the same order, the values of `CCS(=O)(=O)N1CCC(c2c[nH]c3c(C(N)=O)cc(-c4csc(CN(C)CC(N)=O)c4)cc23)CC1` [Example 44, 5-(5-{[(2-amino-2-oxoethyl)(methyl)amino]methyl}-3-thienyl)-3-[1-(ethylsulfonyl)-4-piperidinyl]-1H-indole-7-carboxamide trifluoroacetate] are ≤ 1.5 µM and ≤ 10 µM.
For the molecule `CCS(=O)(=O)N1CCC(c2c[nH]c3c(C(N)=O)cc(-c4csc(CN(C)CCS(=O)(=O)c5ccccc5)c4)cc23)CC1` [Example 45, 3-[1-(ethylsulfonyl)-4-piperidinyl]-5-[5-({methyl[2-(phenylsulfonyl)ethyl]amino}methyl)-3-thienyl]-1H-indole-7-carboxamide trifluoroacetate], the inhibition (usually the drop in the measured response relative to a control, in per cent) at 0.3 µM in assay [1] fell in the range of 0 to 60%. The IC50 in assay [2] is ≤ 10 µM.
For `CCS(=O)(=O)N1CCC(c2c[nH]c3c(C(N)=O)cc(-c4csc(CN5CCCC5c5ccccc5)c4)cc23)CC1` (stereo not drawn) [Example 46, 3-[1-(ethylsulfonyl)-4-piperidinyl]-5-{5-[(2-phenyl-1-pyrrolidinyl)methyl]-3-thienyl}-1H-indole-7-carboxamide] the same measures were 0 to 60% and ≤ 10 µM.
In the same order, the values of `CCS(=O)(=O)N1CCC(c2c[nH]c3c(C(N)=O)cc(-c4csc(CN5CCCC5CN5CCCCC5)c4)cc23)CC1` (stereo not drawn) [Example 47, 3-[1-(ethylsulfonyl)-4-piperidinyl]-5-(5-{[2-(1-piperidinylmethyl)-1-pyrrolidinyl]methyl}-3-thienyl)-1H-indole-7-carboxamide] are 0 to 60% and ≤ 10 µM.
In the same order, the values of `CCS(=O)(=O)N1CCC(c2c[nH]c3c(C(N)=O)cc(-c4csc(CN5CCC[C@@H]5C(N)=O)c4)cc23)CC1` [Example 48, 5-(5-{[(2R)-2-(aminocarbonyl)-1-pyrrolidinyl]methyl}-3-thienyl)-3-[1-(ethylsulfonyl)-4-piperidinyl]-1H-indole-7-carboxamide] are 0 to 60% and ≤ 10 µM.
For the molecule `CCS(=O)(=O)N1CCC(c2c[nH]c3c(C(N)=O)cc(-c4csc(CN5CC[C@H](N(C)C)C5)c4)cc23)CC1` [Example 49, 5-(5-{[(3S)-3-(dimethylamino)-1-pyrrolidinyl]methyl}-3-thienyl)-3-[1-(ethylsulfonyl)-4-piperidinyl]-1H-indole-7-carboxamide], in assay [1], the inhibition at 0.3 µM was 0 to 60%. For the same molecule, in assay [2], the IC50 is ≤ 10 µM.
Take `CCS(=O)(=O)N1CCC(c2c[nH]c3c(C(N)=O)cc(-c4cnn(CCN5CCC(N(C)C)CC5)c4)cc23)CC1` [Example 50, 5-(1-{2-[4-(dimethylamino)-1-piperidinyl]ethyl}-1H-pyrazol-4-yl)-3-[1-(ethylsulfonyl)-4-piperidinyl]-1H-indole-7-carboxamide trifluoroacetate]: the IC50 in assay [1] was > 1 µM; in assay [2], ≤ 10 µM.
Regarding `CCS(=O)(=O)N1CCC(c2c[nH]c3c(C(N)=O)cc(-c4cc(CN(C)C)c5c(c4)OCC5)cc23)CC1` [Example 58, 5-{4-[(dimethylamino)methyl]-2,3-dihydro-1-benzofuran-6-yl}-3-[1-(ethylsulfonyl)-4-piperidinyl]-1H-indole-7-carboxamide], the inhibition at 0.3 µM in assay [1] lay within 0 to 60%. In addition, the IC50 in assay [2] is ≤ 10 µM.
For `CCS(=O)(=O)N1CCC(c2c[nH]c3c(C(N)=O)cc(-c4cc(CN5CCOCC5)c5c(c4)OCC5)cc23)CC1` [Example 60, 3-[1-(ethylsulfonyl)-4-piperidinyl]-5-[4-(4-morpholinylmethyl)-2,3-dihydro-1-benzofuran-6-yl]-1H-indole-7-carboxamide] the same measures were 0 to 60% and ≤ 10 µM.
As for `CCS(=O)(=O)N1CCC(c2c[nH]c3c(C(N)=O)cc(-c4ccc(CNC(C)COC)s4)cc23)CC1` (stereo not drawn) [Example 61, 3-[1-(ethylsulfonyl)-4-piperidinyl]-5-[5-({[1-methyl-2-(methyloxy)ethyl]amino}methyl)-2-thienyl]-1H-indole-7-carboxamide], the IC50 in assay [1] was ≤ 1.5 µM; in assay [2] it was ≤ 10 µM.
In the same order, the values of `CCS(=O)(=O)N1CCC(c2c[nH]c3c(C(N)=O)cc(-c4cncc(CNCCC#N)c4)cc23)CC1` [Example 62, 5-(5-{[(2-cyanoethyl)amino]methyl}-3-pyridinyl)-3-[1-(ethylsulfonyl)-4-piperidinyl]-1H-indole-7-carboxamide] are ≤ 1.5 µM and ≤ 10 µM.
`CCS(=O)(=O)N1CCC(c2c[nH]c3c(C(N)=O)cc(-c4cncc(CNCC(F)(F)F)c4)cc23)CC1` [Example 63, 3-[1-(ethylsulfonyl)-4-piperidinyl]-5-(5-{[(2,2,2-trifluoroethyl)amino]methyl}-3-pyridinyl)-1H-indole-7-carboxamide]: the inhibition at 0.3 µM in assay [1] lay within 0 to 60%. For the same molecule, in assay [2], the IC50 was ≤ 10 µM.
`CCS(=O)(=O)N1CCC(c2c[nH]c3c(C(N)=O)cc(-c4cccc(CN(C)C)c4)cc23)CC1` [Example 64, 5-{3-[(dimethylamino)methyl]phenyl}-3-[1-(ethylsulfonyl)-4-piperidinyl]-1H-indole-7-carboxamide]: the IC50 in assay [1] was ≤ 1.5 µM; in assay [2], ≤ 10 µM.
In the same order, the values of `CCN(C)Cc1cc(-c2cc(C(N)=O)c3[nH]cc(C4CCN(S(=O)(=O)CC)CC4)c3c2)cs1` [Example 65, 5-(5-{[ethyl(methyl)amino]methyl}-3-thienyl)-3-[1-(ethylsulfonyl)-4-piperidinyl]-1H-indole-7-carboxamide trifluoroacetate] are ≤ 1.5 µM and ≤ 10 µM.
Consider `CCN(CC)CCN(C)Cc1cc(-c2cc(C(N)=O)c3[nH]cc(C4CCN(S(=O)(=O)CC)CC4)c3c2)cs1` [Example 66, 5-(5-{[[2-(diethylamino)ethyl](methyl)amino]methyl}-3-thienyl)-3-[1-(ethylsulfonyl)-4-piperidinyl]-1H-indole-7-carboxamide trifluoroacetate], for which the IC50 in assay [1] was ≤ 1.5 µM; in assay [2], ≤ 10 µM.
In the same order, the values of `CCCCN(C)Cc1cc(-c2cc(C(N)=O)c3[nH]cc(C4CCN(S(=O)(=O)CC)CC4)c3c2)cs1` [Example 67, 5-(5-{[butyl(methyl)amino]methyl}-3-thienyl)-3-[1-(ethylsulfonyl)-4-piperidinyl]-1H-indole-7-carboxamide trifluoroacetate] are ≤ 1.5 µM and ≤ 10 µM.
In the case of `CCCN(C)Cc1cc(-c2cc(C(N)=O)c3[nH]cc(C4CCN(S(=O)(=O)CC)CC4)c3c2)cs1` [Example 68, 3-[1-(ethylsulfonyl)-4-piperidinyl]-5-(5-{[methyl(propyl)amino]methyl}-3-thienyl)-1H-indole-7-carboxamide trifluoroacetate], the IC50 in assay [1] was ≤ 1.5 µM; in assay [2], ≤ 10 µM.
Turning to `CCS(=O)(=O)N1CCC(c2c[nH]c3c(C(N)=O)cc(-c4csc(CN(C)CCN(C)C)c4)cc23)CC1` [Example 69, 5-(5-{[[2-(dimethylamino)ethyl](methyl)amino]methyl}-3-thienyl)-3-[1-(ethylsulfonyl)-4-piperidinyl]-1H-indole-7-carboxamide trifluoroacetate], the figures for the IC50 in assay [1] and in assay [2] were ≤ 1.5 µM and ≤ 10 µM, respectively.
As for `CCS(=O)(=O)N1CCC(c2c[nH]c3c(C(N)=O)cc(-c4csc(CN(C)CCCN(C)C)c4)cc23)CC1` [Example 70, 5-(5-{[[3-(dimethylamino)propyl](methyl)amino]methyl}-3-thienyl)-3-[1-(ethylsulfonyl)-4-piperidinyl]-1H-indole-7-carboxamide trifluoroacetate], the IC50 is > 1 µM in assay [1] and ≤ 10 µM in assay [2].
As for `CCS(=O)(=O)N1CCC(c2c[nH]c3c(C(N)=O)cc(-c4csc(CN(C)C5CCCC5)c4)cc23)CC1` [Example 71, 5-(5-{[cyclopentyl(methyl)amino]methyl}-3-thienyl)-3-[1-(ethylsulfonyl)-4-piperidinyl]-1H-indole-7-carboxamide trifluoroacetate], the values for the IC50 in assay [1] and in assay [2] were ≤ 1.5 µM and ≤ 10 µM, respectively.
